This test deals with T1, CCR9 (Homo sapiens, UniProt P51686).
T1 sequence (P51686 1-369): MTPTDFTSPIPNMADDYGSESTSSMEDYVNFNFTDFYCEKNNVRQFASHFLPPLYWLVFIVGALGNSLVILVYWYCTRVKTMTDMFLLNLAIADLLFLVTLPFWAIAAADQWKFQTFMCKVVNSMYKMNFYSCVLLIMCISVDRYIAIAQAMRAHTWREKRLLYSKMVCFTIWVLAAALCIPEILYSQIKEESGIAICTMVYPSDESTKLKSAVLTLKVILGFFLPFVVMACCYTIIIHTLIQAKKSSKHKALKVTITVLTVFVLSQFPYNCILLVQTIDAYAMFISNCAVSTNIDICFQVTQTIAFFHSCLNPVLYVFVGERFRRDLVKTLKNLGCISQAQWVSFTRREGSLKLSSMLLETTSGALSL
The test is described as follows: FLIPR calcium flux assay using MOLT4 cells (TECK stimulation). The test is classed as cell-based. Also noted: endogenous in cells; host or cells: MOLT4 (human T-cell line). The following applies: MOLT4 cells (a human T-cell line); Ki determined from IC50 of TECK-induced intracellular calcium increase. On the procedure: Biological Activity: FLIPR Assay Using MOLT4 Cells
A calcium flux assay was used to determine the ability of the compounds to interfere with the binding between CCR9 and its chemokine ligand (TECK) in MOLT4 cells (a human T-cell line). MOLT4 cells were seeded (100,000 cells/well) in coming cell culture plates (Cat #3603) in assay buffer (lx HBSS, 20 mM HEPES) containing 2.5 mM Probenecid. The plate was centrifuged at 1200 rpm for 3 minutes and incubated at 37° C./5% CO2 for 2 hours. A 0.3× Fluo-4 NW calcium dye was prepared in assay buffer containing 5 mM Probenecid and stored in the dark. Each well was loaded with 25 μL of 0.3× Fluo-4 NW calcium dye and incubated at 37 C/5% CO2 for 60 minutes and then at room temperature for 30 minutes. A half-log serially diluted concentration response curve was prepared at a 4× concentration for each (10 μM-0.1 nM final assay concentration) and 25 μL of the compound then transferred to the cells (100 μL final volume) for 60 minutes prior to stimulation (30 minutes at 37° C./5% CO2 and 30 minutes at room temperature). TECK was diluted to 5× its EC50 in assay buffer (containing 0.1% [w/v] bovine serum albumin [BSA]) and 25 μL dispensed through the FLIPR instrument to stimulate the cells (125 μL final volume). The increased in intracellular calcium levels was measured with the FLIPR instrument. The potency of the compound as CCR9 antagonist was calculated as an IC50 using GraphPad Prism software (variable slope four parameter). The Ki of the compound was determined from the IC50 values using the following equation.
Ki calculation: IC50/1+(Agonist (TECK) conc. used in assay/EC50 of agonist (TECK) generated on day of experiment)
Background: A change in cytosolic calcium serves as a functional read-out for many receptors and channels.

What is called Ki is a measure of affinity in units of concentration, obtained from inhibition or displacement. With `O=S(=O)(Nc1ccnc2cc(C3CC3)nn12)c1ccc(C(F)(F)F)cc1` [Compound 41], the inhibitory constant (Ki) turned out to be 1880 nM.

Regarding `CC(C)(C#N)c1ccc(S(=O)(=O)Nc2ccc(Cl)c3cc(-c4cccnc4)nn23)cc1` [Compound 123], the Ki was determined as 219 nM. As for `COc1ccc(-c2cc3c(Cl)ccc(NS(=O)(=O)c4ccc(C(C)(C)C)cc4)n3n2)cn1` [Compound 197], the inhibitory constant (Ki) was 189 nM. For the compound `CCc1cc2c(Cl)ccc(NS(=O)(=O)c3ccc(C(F)(F)F)cc3)n2n1` [Compound 106], the Ki amounted to 177 nM. As for `O=S(=O)(Nc1ccnc2cc(C3CC3)nn12)c1ccc(OC(F)(F)F)cc1` [Compound 42], the Ki turned out to be 1590 nM. For `CCOc1ccc(-c2cc3c(Cl)ccc(NS(=O)(=O)c4ccc(C(C)(C)C)cc4)n3n2)cn1` [Compound 194], the inhibition constant Ki amounted to 110 nM.

As to `COc1cncc(-c2cc3c(Br)ccc(NS(=O)(=O)c4ccc(C(C)(C)C)cc4)n3n2)c1` [Compound 160], the Ki was determined as 170 nM.

Regarding `Cc1ccncc1-c1cc2c(Cl)ccc(NS(=O)(=O)c3ccc(C(C)(C)C)cc3)n2n1` [Compound 208], the inhibition constant (Ki) is 88 nM. For `COc1ncccc1-c1cc2c(Cl)ccc(NS(=O)(=O)c3ccc(C(C)(C)C)cc3)n2n1` [Compound 201], the Ki came to 192 nM. On to `O=S(=O)(Nc1ccnc2cc(-c3ccc(Cl)cc3)nn12)c1ccc(-c2cnco2)cc1` [Compound 90], for which the inhibition constant (Ki) was 1380 nM. `COc1cc(-c2cc3c(Cl)ccc(NS(=O)(=O)c4ccc(C(C)C)cc4)n3n2)c[n+]([O-])c1` [Compound 126]: the Ki worked out at 73 nM. To `CC(C)(C)c1ccc(S(=O)(=O)Nc2ccnc3cc(-c4cccnc4)nn23)cc1` [Compound 62, 4-(tert-butyl)-N-(2-(pyridin-3-yl)pyrazolo[1,5-a]pyrimidin-7-yl)benzenesulfonamide] belongs 253 nM; to `CC(C)(C)c1ccc(S(=O)(=O)Nc2ccc(C#N)c3cc(-c4cnco4)nn23)cc1` [Compound 170, 4-(tert-butyl)-N-(4-cyano-2-(oxazol-5-yl)pyrazolo[1,5-a]pyridin-7-yl)benzenesulfonamide], 27 nM; to `Cc1cc2nccc(NS(=O)(=O)c3cccc(C(C)(C)C)c3)n2n1` [Compound 32], 1780 nM.

In the case of `Cc1cc2nccc(NS(=O)(=O)c3ccc(N4CCOCC4)cc3)n2n1` [Compound 22], the inhibitory constant (Ki) stood at 4000 nM. To `O=S(=O)(Nc1ccnc2cc(C3CC3)nn12)c1cccc(C(F)(F)F)c1` [Compound 39] belongs 5890 nM; to `Cn1cc(-c2cc3c(Br)ccc(NS(=O)(=O)c4ccc(C(C)(C)C)cc4)n3n2)cn1` [Compound 165, 4-(tert-butyl)-N-(4-bromo-2-(1-methyl-1H-pyrazol-4-yl)pyrazolo[1,5-a]pyridin-7-yl)benzenesulfonamide], 129 nM; to `CCn1cc(-c2cc3c(Cl)ccc(NS(=O)(=O)c4ccc(C(C)(C)C)cc4)n3n2)cn1` [Compound 185], 116 nM. For the compound `CC(C)(C)c1ccc(S(=O)(=O)Nc2ccnc3cc(-c4ccc(C#N)cc4)nn23)cc1` [Compound 75, 4-(tert-butyl)-N-(2-(4-cyanophenyl)pyrazolo[1,5-a]pyrimidin-7-yl)benzenesulfonamide], the inhibition constant Ki was 1550 nM. The value for `CC(C)(C)c1ccc(S(=O)(=O)Nc2ccc(Cl)c3cc(-c4cnccn4)nn23)cc1` [Compound 188] was 194 nM; that for `COc1cncc(-c2cc3c(Cl)ccc(NS(=O)(=O)c4ccc(C(C)(C)C)cc4)n3n2)c1` [Compound 127] was 192 nM; that for `CC(C)(C)c1ccc(S(=O)(=O)Nc2ccc(C#N)c3cc(-c4ccncc4)nn23)cc1` [Compound 150] was 39 nM. Turning to `CC(C)c1cc2c(Cl)ccc(NS(=O)(=O)c3ccc(C(F)(F)F)cc3)n2n1` [Compound 101], the Ki was 492 nM. In the case of `O=S(=O)(Nc1ccc(Cl)c2cc(-c3cncc(F)c3)nn12)c1ccc(C(F)(F)F)cc1` [Compound 133], the Ki was determined as 182 nM. To `CC(C)(C)c1ccc(S(=O)(=O)Nc2ccc(C#N)c3cc(-c4cncc(C#N)c4)nn23)cc1` [Compound 154, 4-(tert-butyl)-N-(4-cyano-2-(5-cyanopyridin-3-yl)pyrazolo[1,5-a]pyridin-7-yl)benzenesulfonamide] belongs 76 nM.

With `COc1ccc(-c2cc3c(C#N)ccc(NS(=O)(=O)c4ccc(C(C)(C)C)cc4)n3n2)c(OC)n1` [Compound 210], the inhibition constant Ki is 149 nM. Take `O=S(=O)(Nc1ccc(Cl)c2cc(-c3cccnc3)nn12)c1ccc(OC(F)(F)F)cc1` [Compound 112]: the Ki was found to be 92 nM. As to `Cc1cc2nccc(NS(=O)(=O)c3ccc(Br)cc3)n2n1` [Compound 28], the inhibition constant Ki worked out at 6190 nM.

As for `Cn1nccc1-c1cc2c(Cl)ccc(NS(=O)(=O)c3ccc(C(C)(C)C)cc3)n2n1` [Compound 143], the inhibition constant (Ki) was determined as 105 nM.

As to `O=S(=O)(Nc1ccc(Cl)c2cc(C3CC3)nn12)c1ccc(Cl)c(C(F)(F)F)c1` [Compound 108], the Ki amounted to 456 nM. To `COc1cncc(-c2cc3c(Cl)ccc(NS(=O)(=O)c4ccc(C(F)(F)F)cc4)n3n2)c1` [Compound 128] belongs 170 nM; to `CC(C)(C)c1ccc(S(=O)(=O)Nc2ccc(Cl)c3cc(-c4cncc(F)c4)nn23)cc1` [Compound 132], 171 nM; to `O=S(=O)(Nc1ccc(Cl)c2cc(-c3ccc[n+]([O-])c3)nn12)c1ccc(OC(F)(F)F)cc1` [Compound 116], 1030 nM.

Take `CC(C)(C)c1cccc(S(=O)(=O)Nc2ccnc3cc(C4CC4)nn23)c1` [Compound 44]: the Ki came out at 1420 nM. To `O=S(=O)(Nc1ccnc2cc(C3CC3)nn12)c1cccc(OC(F)(F)F)c1` [Compound 50] belongs 3750 nM; to `Cc1cc2nccc(NS(=O)(=O)c3ccc(C(F)(F)F)cc3)n2n1` [Compound 23], 1700 nM. The value for `O=S(=O)(Nc1ccc(Cl)c2cc(-c3cccnc3)nn12)c1ccc(F)cc1` [Compound 115] was 640 nM; that for `CCOc1ccc(-c2cc3c(C#N)ccc(NS(=O)(=O)c4ccc(C(C)(C)C)cc4)n3n2)cn1` [Compound 195] was 34 nM; that for `Cc1c(-c2cc3c(Cl)ccc(NS(=O)(=O)c4ccc(C(C)(C)C)cc4)n3n2)cnn1C` [Compound 187] was 318 nM. To `CCc1cc2nccc(NS(=O)(=O)c3ccc(Cl)c(C(F)(F)F)c3)n2n1` [Compound 87] belongs 3230 nM. Regarding `Cc1cc2nccc(NS(=O)(=O)c3ccc(OC(F)F)cc3)n2n1` [Compound 33], the inhibitory constant (Ki) was found to be 1210 nM. The value for `CC(C)(C)c1ccc(S(=O)(=O)Nc2ccc(C#N)c3cc(-c4ccccn4)nn23)cc1` [Compound 193] was 81 nM; that for `O=S(=O)(Nc1ccnc2cc(C3CC3)nn12)c1ccc(OC(F)F)cc1` [Compound 51] was 3200 nM; that for `COc1ccc(NS(=O)(=O)c2ccc(C(C)(C)C)cc2)n2nc(-c3cccnc3)cc12` [Compound 173, 4-(tert-butyl)-N-(4-methoxy-2-(pyridin-3-yl)pyrazolo[1,5-a]pyridin-7-yl)benzenesulfonamide] was 377 nM.

For the origin of these results see patent publication US20170002011A1, “BENZENE SULFONAMIDES AS CCR9 INHIBITORS” (NORGINE B.V., priority 2013, published 2017).
